This note sets out measurements from the Kinase Knowledgebase extract (Sharma et al. 2016).

For orientation: IC50 means the concentration that gives 50% inhibition. The low end stands for inhibition by little substance, the high end for a need for much substance. As usually defined, the inhibition is the drop in the measured response relative to a control, in per cent. A lower inhibition goes with little suppression.

For assay [1], the target named is MAPK14 (human) (UniProt Q16539). Briefly: Inhibition of MAPK14 Kinase Activity by PHAS-I Assay. Particulars: for inhibition: concentration not given here.
MAPK14 (human), sequence (Q16539 whole entry, looked up): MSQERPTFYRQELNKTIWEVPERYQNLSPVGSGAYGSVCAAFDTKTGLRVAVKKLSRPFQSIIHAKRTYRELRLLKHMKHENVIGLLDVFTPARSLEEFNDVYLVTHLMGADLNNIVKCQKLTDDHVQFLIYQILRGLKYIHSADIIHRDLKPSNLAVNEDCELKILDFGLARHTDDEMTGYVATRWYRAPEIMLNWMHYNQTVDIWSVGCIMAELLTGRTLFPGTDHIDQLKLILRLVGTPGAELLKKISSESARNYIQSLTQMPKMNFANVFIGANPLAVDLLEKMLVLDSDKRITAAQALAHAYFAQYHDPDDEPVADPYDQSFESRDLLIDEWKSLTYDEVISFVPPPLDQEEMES
Assay [2] has the same target. Put plainly: Inhibition of LPS Stimulated TNF Production by U937 Cells. Particulars: for inhibition: concentration not given here.

Some results are limits rather than exact numbers.

Consider `CC1(C)[C@@H]2CC[C@]1(CCS(=O)(=O)NCc1[nH]nc(-c3ccc(F)cc3)c1-c1ccncc1)C(=O)C2`, for which the IC50 on MAPK14 (human) [1] came out at 45 nM. In addition, the inhibition against MAPK14 (human) [2] was found to be 1%.
On to `CN1CCN(CCCNC(=O)NCCCc2[nH]nc(-c3ccc(F)cc3)c2-c2ccncc2)CC1`, for which the figures for the half-maximal inhibitory concentration (IC50) against MAPK14 (human) [1] and on MAPK14 (human) [2] were 91 nM and > 1000 nM, respectively.
Regarding `CCOC(=O)C(CCSC)NC(=O)NCCc1[nH]nc(-c2ccc(F)cc2)c1-c1ccncc1` (configuration not stated), the values for the inhibition against MAPK14 (human) [1] and at MAPK14 (human) [2] were 69% and 54%, respectively.
In the case of `N#Cc1ccc(S(=O)(=O)NCCCc2[nH]nc(-c3ccc(F)cc3)c2-c2ccncc2)cc1`, the concentration for half-maximal inhibition (IC50) on MAPK14 (human) [1] was < 100 nM. Moreover, the inhibition on MAPK14 (human) [2] amounted to 75%.
As to `CCOC(=O)CNC(=O)NCc1[nH]nc(-c2ccc(F)cc2)c1-c1ccncc1`, the inhibition against MAPK14 (human) [1] was found to be 70%; at MAPK14 (human) [2], 27%.
The like results for `Cc1c(-c2ccncc2)c(-c2ccc(F)cc2)nn1CC(=O)N(C)CC(=O)N(C)C` were, in that order, 40% and 31%.
For the molecule `O=C(NCCc1[nH]nc(-c2ccc(F)cc2)c1-c1ccncc1)c1ccno1`, the values for the inhibition against MAPK14 (human) [1] and against MAPK14 (human) [2] were 77% and 45%, respectively.
On the same counts, the results for `COc1ccc(CC(=O)NCCCc2[nH]nc(-c3ccc(F)cc3)c2-c2ccncc2)cc1OC` are 67% and 67%.
In turn, `C=CCOC(=O)NCc1[nH]nc(-c2ccc(F)cc2)c1-c1ccncc1` registered an inhibition on MAPK14 (human) [1] of 97%. Also, on MAPK14 (human) [2], the IC50 was determined as 10000 nM.
For the molecule `Cc1c(-c2ccncc2)c(-c2ccc(F)cc2)nn1CC(=O)N(CC1CC1)C(C)Cc1ccc(Cl)cc1` (configuration not stated), the inhibition against MAPK14 (human) [1] was determined as 83%; against MAPK14 (human) [2], 22%.
For `CC1(C)[C@@H]2CC[C@]1(CS(=O)(=O)NCCCc1[nH]nc(-c3ccc(F)cc3)c1-c1ccncc1)C(=O)C2`, on MAPK14 (human) [1], the IC50 was < 100 nM. At MAPK14 (human) [2], this molecule registered an inhibition of 59%.
`CC(C)=CC(=O)NCCCc1[nH]nc(-c2ccc(F)cc2)c1-c1ccncc1` returned an inhibition at MAPK14 (human) [1] of 72%. Besides, at MAPK14 (human) [2], the IC50 is 1830 nM.
Turning to `Cc1ccc([C@@H](C)NC(=O)Cn2nc(-c3ccc(F)cc3)c(-c3ccncc3)c2C)cc1`, the values for the inhibition against MAPK14 (human) [1] and at MAPK14 (human) [2] were 81% and 45%, respectively.
Take `COc1ccc(S(=O)(=O)NCCc2[nH]nc(-c3ccc(F)cc3)c2-c2ccncc2)cc1`: the inhibition against MAPK14 (human) [1] came to 61%; against MAPK14 (human) [2], 23%.
The like results for `O=C(NCCc1[nH]nc(-c2ccc(F)cc2)c1-c1ccncc1)C1CCC1` were, in that order, 72% and 65%.
The like results for `O=C(NCCc1[nH]nc(-c2ccc(F)cc2)c1-c1ccncc1)c1ccncc1` were, in that order, 69% and 38%.
On the same counts, the results for `CCN(CC)C(=O)Cn1nc(-c2ccc(F)cc2)c(-c2ccncc2)c1C` are 54% and 36%.
For the molecule `COc1ccc(NC(=O)N2CCC(c3[nH]nc(-c4ccc(F)cc4)c3-c3ccncc3)CC2)c(OC)c1`, the values for the IC50 against MAPK14 (human) [1] and on MAPK14 (human) [2] were < 100 nM and 440 nM, respectively.
In the case of `CC(NC(=O)NCCc1[nH]nc(-c2ccc(F)cc2)c1-c1ccncc1)c1cccc2ccccc12` (configuration not stated), the inhibition against MAPK14 (human) [1] was found to be 85%; at MAPK14 (human) [2], 2%.
For `Cc1cccc(S(=O)(=O)NCc2[nH]nc(-c3ccc(F)cc3)c2-c2ccncc2)c1`, on MAPK14 (human) [1], the IC50 was determined as 470 nM. Also, on MAPK14 (human) [2], the inhibition was 82%.
For the molecule `O=C(NCCc1[nH]nc(-c2ccc(F)cc2)c1-c1ccncc1)c1ccc(I)cc1`, the inhibition worked out at 58% on MAPK14 (human) [1] and 33% on MAPK14 (human) [2].
The like results for `CC(=O)NCCc1[nH]nc(-c2ccc(F)cc2)c1-c1ccncc1` were, in that order, 78% and 79%.
The like results for `Cc1c(-c2ccncc2)c(-c2ccc(F)cc2)nn1CC(=O)NC1CCc2ccccc21` (configuration not stated) were, in that order, 73% and 25%.
Regarding `O=C(NCc1[nH]nc(-c2ccc(F)cc2)c1-c1ccncc1)N1CCCC1`, the figures for the IC50 on MAPK14 (human) [1] and against MAPK14 (human) [2] were 550 nM and > 1000 nM, respectively.
`CCOC(=O)NCCc1[nH]nc(-c2ccc(F)cc2)c1-c1ccncc1`: the results for the inhibition on MAPK14 (human) [1] and on MAPK14 (human) [2] were 79% and 55%, respectively.
For the molecule `COc1cc(NC(=O)NCCc2[nH]nc(-c3ccc(F)cc3)c2-c2ccncc2)cc(OC)c1OC`, the results for the inhibition against MAPK14 (human) [1] and at MAPK14 (human) [2] were 56% and 23%, respectively.
On the same counts, the results for `CCOC(=O)C(CCSC)NC(=O)NCc1[nH]nc(-c2ccc(F)cc2)c1-c1ccncc1` (configuration not stated) are 44% and 22%.
The like results for `Cc1ccc(S(=O)(=O)N[C@@H](Cc2ccccc2)C(=O)NCCc2[nH]nc(-c3ccc(F)cc3)c2-c2ccncc2)cc1` were, in that order, 72% and 17%.
As to `Cc1ccc(S(=O)(=O)N[C@H](CCc2ccccc2)C(=O)NCc2[nH]nc(-c3ccc(F)cc3)c2-c2ccncc2)cc1`, at MAPK14 (human) [1], the inhibition stood at 94%. At MAPK14 (human) [2], this molecule came in with an IC50 of 10000 nM.
As to `COc1ccc2[nH]c3c(c2c1)CCN(C(=O)Cn1nc(-c2ccc(F)cc2)c(-c2ccncc2)c1C)C3`, the inhibition at MAPK14 (human) [1] was 39%; against MAPK14 (human) [2], 10%.
`O=C(NCCc1[nH]nc(-c2ccc(F)cc2)c1-c1ccncc1)[C@@H]1CCCN1` came in with an inhibition at MAPK14 (human) [1] of 89%. Besides, the 50% inhibitory concentration (IC50) at MAPK14 (human) [2] came to 760 nM.
